Earlier results as cited in patent publication US20070066591A1, “Compounds, compositions, and methods” (priority 2003, published 2007).

System: A549 cells
Conditions: data provided by National Cancer Institute, Developmental Therapeutic Program

Row | Compound | GI50 [nM]
1 | COc1cccc2c1C(=O)c1c(O)c3c(c(O)c1C2=O)C[C@@](O)(C(=O)CO)C[C@@H]3O[C@H]1C[C@H](N)[C@H](O)[C@H](C)O1 [doxorubicin] | 63
2 | CC(=O)O[C@H]1C(=O)[C@@]2(C)[C@H]([C@H](OC(=O)c3ccccc3)[C@]3(O)C[C@H](OC(=O)[C@H](O)[C@@H](NC(=O)c4ccccc4)c4ccccc4)C(C)=C1C3(C)C)[C@]1(OC(C)=O)CO[C@@H]1C[C@@H]2O [paclitaxel] | 4
3 | O=c1[nH]cc(F)c(=O)[nH]1 [5-fluorouracil] | 1000
4 | NC(=O)NO [hydroxyurea] | 500000
